# Test results taken from patent US9249163B2, “PDE10a inhibitors for the treatment of type II diabetes” (Janssen Pharmaceutica, NV, priority 2013, dated 2016).
# Where a name gives a salt, the structure may show the parent alone.
# Key:
# [1] = target: Rat recombinant PDE10a (rPDE10a) (Rattus norvegicus (Rat), UniProt Q9QYJ6); assay: In vitro assay PDE10a (rat recombinant PDE10a, SPA); assay type: biochemical; conditions: 60 nM cAMP, 60 min at rt, read-out: rPDE10a2 IC50
# Description: Rat recombinant PDE10a (rPDE10a) was expressed in Sf9 cells using a recombinant rPDE10a baculovirus construct. Cells were harvested after 48 h of infection and the rPDE10a protein was purified by metal chelate chromatography on Ni-sepharose 6FF. Tested compounds were dissolved and diluted in 100% DMSO to a concentration 100 fold of the final concentration in the assay. Compound dilutions (0.4 μL) were added in 384 well plates to 20 μL of incubation buffer (50 mM Tris pH 7.8, 8.3 mM MgCl2, 1.7 mM EGTA). 10 μL of rPDE10a enzyme in incubation buffer was added and the reaction was started by addition of 10 μL substrate to a final concentration of 60 nM cAMP and 0.008 μCi ^3H-cAMP. The reaction was incubated for 60 min at rt. After incubation, the reaction was stopped with 20 μL of 17.8 mg/mL PDE SPA beads. After sedimentation of the beads during 30 min the radioactivity was measured in a Perkin Elmer Topcount scintillation counter and results were expressed as cpm. For blank values the enzyme was omitted from the reaction and replaced by incubation buffer. Control values were obtained by addition of a final concentration of 1% DMSO instead of compound.
# [2] = target: Human recombinant PDE10A2 (Homo sapiens (Human), UniProt Q9Y233); assay: In vitro hPDE10a (human recombinant PDE10A2, scintillation proximity assay); assay type: biochemical; conditions: human recombinant PDE10A2, 60 nM cAMP, 60 min at room temperature; read-out: hPDE10a2 IC50
# Human recombinant PDE10A2, sequence (Q9Y233 267-1055): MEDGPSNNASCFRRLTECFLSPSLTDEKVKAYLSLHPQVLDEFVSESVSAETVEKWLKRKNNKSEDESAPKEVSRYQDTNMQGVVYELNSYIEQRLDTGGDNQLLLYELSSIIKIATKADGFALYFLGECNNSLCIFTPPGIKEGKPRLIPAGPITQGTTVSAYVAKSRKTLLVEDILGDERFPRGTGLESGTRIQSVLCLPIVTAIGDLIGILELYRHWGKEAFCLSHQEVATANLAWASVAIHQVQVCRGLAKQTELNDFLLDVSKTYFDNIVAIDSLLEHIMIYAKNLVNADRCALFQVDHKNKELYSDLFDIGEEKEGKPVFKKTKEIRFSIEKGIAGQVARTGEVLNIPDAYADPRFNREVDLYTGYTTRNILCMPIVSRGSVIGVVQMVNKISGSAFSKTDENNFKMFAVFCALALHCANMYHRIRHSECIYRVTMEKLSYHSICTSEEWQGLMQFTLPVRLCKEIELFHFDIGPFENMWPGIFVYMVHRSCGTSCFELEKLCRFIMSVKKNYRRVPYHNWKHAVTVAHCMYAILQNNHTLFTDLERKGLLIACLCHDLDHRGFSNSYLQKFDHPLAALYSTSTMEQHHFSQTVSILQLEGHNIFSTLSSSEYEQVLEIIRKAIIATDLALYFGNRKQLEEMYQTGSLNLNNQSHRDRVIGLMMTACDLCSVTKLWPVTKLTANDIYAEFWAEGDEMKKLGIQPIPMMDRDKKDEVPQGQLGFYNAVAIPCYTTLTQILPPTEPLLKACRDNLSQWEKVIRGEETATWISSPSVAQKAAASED
# Description: Human recombinant PDE10A2 was expressed in Sf9 cells, using a recombinant baculovirus construct containing the full length sequence containing a 6×His sequence following the start Met to allow metal affinity purification of the recombinant protein. Cells were harvested and the phosphodiesterase protein was purified by metal chelate chromatography on Ni-sepharose 6FF.
# The affinity of the compounds of Formula (I) for phophodiesterases (PDE) was measured by a scintillation proximity assay (SPA). PDE Yttrium Silicate SPA beads allow PDE activity to be measured by direct binding of the primary phosphate groups of non-cyclic AMP or GMP to the beads via a complex iron chelation mechanism. The amount of bound tritiated product ([^3H]-AMP) is measured by liquid scintillation counting.
# The compounds were dissolved and diluted in 100% DMSO in polystyrene plates to a concentration of 100-fold the final concentration in the assay. Human PDE10A enzyme solution (10 μL) was added to 20 μL, of incubation buffer (50 mM Tris pH 7.8, 8.3 mM MgCl2, 1.7 mM EGTA), 10 μL, substrate solution consisting of a mixture of non-tritiated and tritiated substrate (60 nM cAMP, 0.008 μCi ^3H-cAMP), and 0.4 μL, compound in 100% DMSO in a 384-well plate, and incubated for 60 min at room temperature. After incubation, the reaction was stopped with 20 μL, of stop solution, consisting of PDE SPA beads (17.8 mg beads/mL in 18 mM zinc sulphate). After sedimentation of the beads for 30 min, the radioactivity was measured in a Perkin Elmer Topcount scintillation counter and results were expressed as cpm. To measure the low control, no enzyme was added to the reaction mixture.
# Data were calculated as the percentage of inhibition of total activity measured in the absence of test compound (% control).
# Rat recombinant PDE10a (rPDE10a), sequence (Q9QYJ6 whole entry): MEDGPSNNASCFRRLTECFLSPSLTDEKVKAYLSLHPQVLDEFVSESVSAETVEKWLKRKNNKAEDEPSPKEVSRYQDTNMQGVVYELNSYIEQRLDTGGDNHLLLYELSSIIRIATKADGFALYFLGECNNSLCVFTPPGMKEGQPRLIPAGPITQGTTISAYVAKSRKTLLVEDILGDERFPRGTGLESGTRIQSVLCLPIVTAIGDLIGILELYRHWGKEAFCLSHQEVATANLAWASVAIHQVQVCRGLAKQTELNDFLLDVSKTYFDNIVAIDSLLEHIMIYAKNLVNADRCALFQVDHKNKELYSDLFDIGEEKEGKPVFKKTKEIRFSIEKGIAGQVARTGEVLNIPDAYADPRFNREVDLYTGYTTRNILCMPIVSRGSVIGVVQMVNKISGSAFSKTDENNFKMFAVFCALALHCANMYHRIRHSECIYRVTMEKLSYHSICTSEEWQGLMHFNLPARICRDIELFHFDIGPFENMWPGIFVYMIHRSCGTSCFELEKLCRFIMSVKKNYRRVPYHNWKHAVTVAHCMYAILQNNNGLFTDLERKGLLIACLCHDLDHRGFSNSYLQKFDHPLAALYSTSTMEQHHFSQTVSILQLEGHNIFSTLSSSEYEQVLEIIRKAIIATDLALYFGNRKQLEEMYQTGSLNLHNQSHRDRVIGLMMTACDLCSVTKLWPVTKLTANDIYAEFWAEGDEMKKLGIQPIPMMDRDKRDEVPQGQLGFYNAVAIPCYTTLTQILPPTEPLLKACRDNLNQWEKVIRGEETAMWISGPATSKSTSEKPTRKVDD
SMILES,IC50 [1],IC50 [2]
"O=c1ncn(-c2ccc(-c3cnc(N4CCOCC4)c4nc(/C=C/c5ccc6ccccc6n5)cn34)cc2)[nH]1 [Cpd 56, (E)-1-(4-(8-Morpholino-2-(2-(quinolin-2-yl)vinyl)imidazo[1,2-a]pyrazin-5-yl)phenyl)-1,2-dihydro-1,2,4-triazol-3-one]",15 nM,14 nM
"CS(=O)(=O)NC(=O)c1ccc(-c2cnc(N3CCOCC3)c3nc(CSc4ccc5ccccc5n4)cn23)cc1 [Cpd 12, N-(Methylsulfonyl)-4-(8-morpholino-2-((quinolin-2-ylthio)methyl)imidazo[1,2-a]pyrazin-5-yl)benzamide]",4 nM,2 nM
"COc1cccc(/C=C/c2cn3c(-c4ccc(C(=O)O)cc4)cnc(N4CCOCC4)c3n2)n1 [Cpd 7, (E)-4-(2-(2-(6-Methoxypyridin-2-yl)vinyl)-8-morpholinoimidazo[1,2-a]pyrazin-5-yl)benzoic acid]",16 nM,6 nM
"COCCOCCOc1ccc(-c2cnc(N3CCOCC3)c3nc(/C=C/c4ccc5ccccc5n4)cn23)cc1 [Cpd 18, (E)-4-(5-(4-(2-(2-Methoxyethoxy)ethoxy)phenyl)-2-(2-(quinolin-2-yl)vinyl)imidazo[1,2-a]pyrazin-8-yl)morpholine]",102 nM,83 nM
"O=C(O)CNC(=O)c1ccc(-c2cnc(N3CCOCC3)c3nc(/C=C/c4ccc5ccccc5n4)cn23)cc1 [Cpd 50, (E)-2-(4-(8-Morpholino-2-(2-(quinolin-2-yl)vinyl)imidazo[1,2-a]pyrazin-5-yl)benzamido)acetic acid]",17 nM,18 nM
"c1ccc2nc(CCc3cn4c(-c5ccc(-c6nnc[nH]6)nc5)cnc(N5CCOCC5)c4n3)ccc2c1 [Cpd 67, 4-(5-(6-(4H-1,2,4-Triazol-3-yl)pyridin-3-yl)-2-(2-(quinolin-2-yl)ethyl)imidazo[1,2-a]pyrazin-8-yl)morpholine]",4 nM,5 nM
"O=c1[nH]ncn1-c1ccc(-c2cnc(N3CCOCC3)c3nc(CCc4ccc5ccccc5n4)cn23)cc1 [Cpd 65, 4-(4-(8-Morpholino-2-(2-(quinolin-2-yl)ethyl)imidazo[1,2-a]pyrazin-5-yl)phenyl)-1H-1,2,4-triazol-5(4H)-one]",60 nM,38 nM
"CN1C(=O)NS(=O)(=O)c2cc(-c3cnc(N4CCOCC4)c4nc(/C=C/c5ccc6ccccc6n5)cn34)ccc21 [Cpd 24, (E)-4-Methyl-7-(8-morpholino-2-(2-(quinolin-2-yl)vinyl)imidazo[1,2-a]pyrazin-5-yl)-2H-benzo[e][1,2,4]thiadiazin-3(4H)-one 1,1-dioxide trifluoroacetic acid salt]",5 nM,3 nM
"O=C1NC(=O)C(c2ccc(-c3cnc(N4CCOCC4)c4nc(/C=C/c5ccc6ccccc6n5)cn34)cc2)N1 (stereo not drawn) [Cpd 57, (E)-5-(4-(8-Morpholino-2-(2-(quinolin-2-yl)vinyl)imidazo[1,2-a]pyrazin-5-yl)phenyl)imidazolidine-2,4-dione 2,2,2-trifluoroacetate]",48 nM,46 nM
"O=C(O)c1ccc(-c2cnc(N3CCOCC3)c3nc(CCc4ccc5ccccc5n4)cn23)cc1 [Cpd 17, 4-(8-Morpholino-2-(2-(quinolin-2-yl)ethyl)imidazo[1,2-a]pyrazin-5-yl)benzoic acid trifluoroacetic acid salt]",3 nM,3 nM
"O=C1NS(=O)(=O)c2cc(-c3cnc(N4CCOCC4)c4nc(CCc5ccc6ccccc6n5)cn34)ccc21 [Cpd 54, 6-(8-Morpholino-2-(2-(quinolin-2-yl)ethyl)imidazo[1,2-a]pyrazin-5-yl)benzo[d]isothiazol-3(2H)-one 1,1-dioxide trifluoroacetic acid salt]",1 nM,1 nM
"CS(=O)(=O)NC(=O)Nc1ccc(-c2cnc(N3CCOCC3)c3nc(CCc4ccc5ccccc5n4)cn23)cc1 [Cpd 40, N-((4-(8-Morpholino-2-(2-(quinolin-2-yl)ethyl)imidazo[1,2-a]pyrazin-5-yl)phenyl)carbamoyl)methanesulfonamide]",20 nM,10 nM
"O=C1NC(=O)C(c2ccc(-c3cnc(N4CCOCC4)c4nc(/C=C/c5ccc6ccccc6n5)cn34)cc2)O1 (stereo not drawn) [Cpd 48, (E)-5-(4-(8-Morpholino-2-(2-(quinolin-2-yl)vinyl)imidazo[1,2-a]pyrazin-5-yl)phenyl)oxazolidine-2,4-dione]",37 nM,11 nM
"CC(C)[C@H](Nc1ccc(-c2cnc(N3CCOCC3)c3nc(/C=C/c4ccc5ccccc5n4)cn23)cc1)C(=O)O [Cpd 15, (S,E)-3-Methyl-2-(4-(8-morpholino-2-(2-(quinolin-2-yl)vinyl)imidazo[1,2-a]pyrazin-5-yl)phenylamino)butanoic acid trifluoroacetic acid salt]",51 nM,30 nM
"O=C(O)c1ccc(-c2cnc(N3CCOCC3)c3nc(/C=C/c4ccc5ccccc5n4)cn23)nc1 [Cpd 6, (E)-6-(8-morpholino-2-(2-(quinolin-2-yl)vinyl)imidazo[1,2-a]pyrazin-5-yl)nicotinic acid hydrochloric acid salt]",14 nM,12 nM
"OC(c1ccc(-c2cnc(N3CCOCC3)c3nc(/C=C/c4ccc5ccccc5n4)cn23)cc1)(C(F)(F)F)C(F)(F)F [Cpd 2, (E)-1,1,1,3,3,3-hexafluoro-2-(4-(8-morpholino-2-(2-(quinolin-2-yl)vinyl)imidazo[1,2-a]pyrazin-5-yl)phenyl)propan-2-ol]",20 nM,30 nM

# The remaining lines, values ahead:
IC50 [1],IC50 [2],SMILES
52 nM,58 nM,"c1ccc2nc(SCc3cn4c(-c5ccc(N6CCNCC6)nc5)cnc(N5CCOCC5)c4n3)ccc2c1 [Cpd 98, 4-(5-(6-(piperazin-1-yl)pyridin-3-yl)-2-((quinolin-2-ylthio)methyl)imidazo[1,2-a]pyrazin-8-yl)morpholine trifluoroacetic acid salt]"
68 nM,129 nM,"C(=C\c1ncc2ccccc2n1)/c1cn2c(-c3ccc(N4CCNCC4)nc3)cnc(N3CCOCC3)c2n1 [Cpd 104, (E)-4-(5-(6-(Piperazin-1-yl)pyridin-3-yl)-2-(2-(quinazolin-2-yl)vinyl)imidazo[1,2-a]pyrazin-8-yl)morpholine]"
269 nM,316 nM,"c1ccc2nc(OCc3cn4c(-c5ccc(N6CCNCC6)nc5)cnc(C5CCOCC5)c4n3)ccc2c1 [compound 83, 2-((5-(6-(piperazin-1-yl)pyridin-3-yl)-8-(tetrahydro-2H-pyran-4-yl)imidazo[1,2-a]pyrazin-2-yl)methoxy)quinoline trifluoroacetic acid salt]"
1 nM,2 nM,"c1ccc2nc(OCc3cn4c(-c5ccc(-c6nnn[nH]6)cc5)cnc(N5CCOCC5)c4n3)ccc2c1 [Cpd 90, 4-(5-(4-(1H-Tetrazol-5-yl)phenyl)-2-((quinolin-2-yloxy)methyl)imidazo[1,2-a]pyrazin-8-yl)morpholine]"
38 nM,29 nM,"c1ccc2nc(OCc3cn4c(-c5ccc(Sc6nnc[nH]6)nc5)cnc(N5CCOCC5)c4n3)ccc2c1 [Cpd 100, 4-(5-(6-((4H-1,2,4-triazol-3-yl)thio)pyridin-3-yl)-2-((quinolin-2-yloxy)methyl)imidazo[1,2-a]pyrazin-8-yl)morpholine]"
30 nM,62 nM,"CN(C)c1ccc(-c2cnc(N3CCOCC3)c3nc(COc4ccc5ccccc5n4)cn23)cn1 [Cpd 127, N,N-Dimethyl-5-(8-morpholino-2-((quinolin-2-yloxy)methyl)imidazo[1,2-a]pyrazin-5-yl)pyridin-2-amine methane sulfonic acid salt]"
91 nM,245 nM,COc1cc(-c2ncc(-c3ccc(N4CCNCC4)nc3)n3cc(/C=C/c4ccc5ccccc5n4)nc23)ccn1 [Cpd 81]
20 nM,15 nM,"O=C(O)Cc1ccc(-c2cnc(N3CCOCC3)c3nc(COc4ccc5ccccc5n4)cn23)cn1 [Cpd 101, 2-(5-(8-Morpholino-2-((quinolin-2-yloxy)methyl)imidazo[1,2-a]pyrazin-5-yl)pyridin-2-yl)acetic acid]"
